Laboratory results reported in US20210355105A1, “REGULATOR OF NITROGEN-CONTAINING HETEROAROMATIC DERIVATIVES, PREPARATION METHOD THEREFOR AND USE THEREOF” (Jiangsu Hansoh Pharmaceutical Group Co., Ltd., priority 2018, published 2021).

Experiments:
hERG potassium channel = target: T1, hERG potassium channel (Homo sapiens, UniProt Q12809); test: Inhibitory activity on hERG potassium channel (Qpatch, CHO-hERG cells); format: cell-based; conditions: six concentrations up to 40 μM, read-out: hERG (inhibitory effect on hERG current)
T1 construct: expressed in transfected cells; host or cells: CHO-hERG cells
T1 sequence (Q12809 whole entry): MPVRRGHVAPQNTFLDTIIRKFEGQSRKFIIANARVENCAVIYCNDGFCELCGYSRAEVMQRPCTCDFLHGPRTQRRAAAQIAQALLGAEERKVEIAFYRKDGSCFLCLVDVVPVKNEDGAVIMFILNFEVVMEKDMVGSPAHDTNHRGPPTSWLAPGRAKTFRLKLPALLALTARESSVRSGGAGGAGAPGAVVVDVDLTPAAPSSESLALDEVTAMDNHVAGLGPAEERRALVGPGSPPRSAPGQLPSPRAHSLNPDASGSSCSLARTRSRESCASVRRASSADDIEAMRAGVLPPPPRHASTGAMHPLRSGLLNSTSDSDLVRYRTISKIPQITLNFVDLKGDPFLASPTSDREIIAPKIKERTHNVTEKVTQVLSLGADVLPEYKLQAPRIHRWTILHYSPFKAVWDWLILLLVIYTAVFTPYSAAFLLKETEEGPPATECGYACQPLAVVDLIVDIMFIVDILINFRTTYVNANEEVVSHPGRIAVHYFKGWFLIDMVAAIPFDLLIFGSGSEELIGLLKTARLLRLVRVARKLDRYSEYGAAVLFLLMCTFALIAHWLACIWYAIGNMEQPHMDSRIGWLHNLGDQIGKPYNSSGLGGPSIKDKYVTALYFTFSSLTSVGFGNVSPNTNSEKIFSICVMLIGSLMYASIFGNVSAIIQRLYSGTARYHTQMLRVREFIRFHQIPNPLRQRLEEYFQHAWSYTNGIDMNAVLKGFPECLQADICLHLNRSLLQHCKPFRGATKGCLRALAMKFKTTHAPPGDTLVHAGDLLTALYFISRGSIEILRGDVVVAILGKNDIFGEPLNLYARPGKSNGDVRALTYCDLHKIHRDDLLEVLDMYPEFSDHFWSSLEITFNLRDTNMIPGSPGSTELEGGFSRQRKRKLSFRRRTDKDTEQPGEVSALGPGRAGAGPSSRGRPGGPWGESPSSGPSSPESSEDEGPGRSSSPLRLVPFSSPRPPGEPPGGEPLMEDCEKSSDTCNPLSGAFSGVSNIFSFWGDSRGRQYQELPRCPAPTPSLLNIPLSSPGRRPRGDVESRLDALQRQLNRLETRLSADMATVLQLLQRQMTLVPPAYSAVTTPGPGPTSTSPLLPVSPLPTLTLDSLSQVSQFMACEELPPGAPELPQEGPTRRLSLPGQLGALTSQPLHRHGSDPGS
Protocol: 8.1.1 CHO-hERG cells were cultured in a 175 cm^2 culture flask. When the cells were grown to a density of 60 to 80%, the culture solution was removed, and the cells were washed once with 7 mL of PBS, and then 3 mL of Detachin was added for digestion of the cells.
8.1.2 After the digestion was complete, the cells were neutralized by adding 7 mL of the culture solution and then centrifuged. The supernatant was removed, and then 5 mL of the culture solution was added for resuspension to ensure a cell density of 2-5×10^6 cells/mL.
The single-cell high-impedance sealing and whole-cell pattern formation processes were both completed automatically by the Qpatch instrument. After the whole-cell recording pattern was obtained, the cells were clamped at −80 millivolts. A pre-voltage of −50 millivolts was applied for 50 milliseconds prior to the application of a depolarizing stimulus of +40 millivolts for 5 seconds, and then the cells were repolarized to −50 millivolts and maintained for 5 seconds, and then returned back to −80 millivolts. This voltage stimulation was applied every 15 seconds, and data were recorded for 2 minutes, and thereafter the extracellular fluid was administered and data were recorded for 5 minutes, and then the administration process was started. The compound was administered from the lowest test concentration, and 2.5 minutes were given for each test concentration. After all the concentrations of the compound were administered, […] Cisapride as a positive control compound was administered. At least three cells (n≥3) were tested for each concentration.
8.4.1 20 mM compound mother solution was diluted with the extracellular fluid. 5 μL of the 20 mM compound mother solution was diluted 500 times to 40 μM by adding 2495 μL of the extracellular fluid, and then 3-fold serial dilutions were performed sequentially in the extracellular fluid containing 0.2% DMSO to obtain a final concentration to be tested.
8.4.2 The highest test concentration was 40 μM, and there were six concentrations in total, i.e., 40, 13.33, 4.44, 1.48, 0.49, and […], respectively.
The experimental data were analyzed by XLFit software.

[1] = target: T2, SHP-2 full-length protein (Homo sapiens, UniProt Q06124); test: Inhibition of SHP-2 kinase activity (Homogeneous Full Length SHP-2 Assay Kit); format: biochemical; conditions: relative IC50, full-length SHP-2 with activating peptide
T2 construct: purchased BPS Bioscience 79330
T2 sequence (Q06124 1-593): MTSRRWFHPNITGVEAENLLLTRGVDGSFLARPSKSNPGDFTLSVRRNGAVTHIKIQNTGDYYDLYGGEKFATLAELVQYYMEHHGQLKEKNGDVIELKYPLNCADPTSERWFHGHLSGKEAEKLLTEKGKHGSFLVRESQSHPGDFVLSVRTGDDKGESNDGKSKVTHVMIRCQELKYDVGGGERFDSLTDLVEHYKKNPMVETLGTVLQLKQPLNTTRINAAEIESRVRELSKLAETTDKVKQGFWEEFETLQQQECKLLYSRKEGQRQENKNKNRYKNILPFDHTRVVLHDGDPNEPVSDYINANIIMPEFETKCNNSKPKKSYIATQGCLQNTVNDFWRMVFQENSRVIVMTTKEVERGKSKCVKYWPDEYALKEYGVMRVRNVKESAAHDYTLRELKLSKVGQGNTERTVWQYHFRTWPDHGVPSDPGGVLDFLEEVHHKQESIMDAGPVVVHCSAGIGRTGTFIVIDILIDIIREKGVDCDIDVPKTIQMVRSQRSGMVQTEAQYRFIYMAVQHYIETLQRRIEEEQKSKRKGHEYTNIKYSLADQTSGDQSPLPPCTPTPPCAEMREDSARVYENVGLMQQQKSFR
Protocol: The objective of this test is to determine the inhibitory effect of the compounds on SHP-2 full-length protein allosteric activity.
Experimental method: Homogeneous Full Length SHP-2 Assay Kit (BPS Bioscience, #79330) was used to determine the in vitro SHP-2 activity. First, 18 μL of Master Mix was added to a 96-well low adsorption microplate (NUNC, #267342), i.e., the reaction buffer with a final concentration of 1× comprised 0.5 μM SHP-2 activating Peptide and 5 mM DTT. After centrifugation, 5 μL of test compound/DMSO was added to each well (the final DMSO content was 1%, V/V, the test compound was dissolved in DMSO to 1 mM, a three-fold serial dilution was carried out to obtain ten concentrations, the final concentration of the reaction system ranged from 1 μM to 0.05 nM). SHP-2 was diluted in the 1× reaction buffer to a final concentration of 0.06 nM, and the resulting solution was added to the reaction microplate (2 μL per well). Full activity control (compound only with DMSO) and full inhibition control (no SHP-2) were set up on the reaction plate. After centrifugation, the reaction mixture was incubated at room temperature for 60 minutes.
After completion of the incubation, 25 μL of Substrate solution, which comprised Substrate with a final concentration of 10 μM and 5 mM DTT, was added to each well. After centrifugation, the reaction mixture was incubated at room temperature for 30 minutes. After completion of the reaction, readings were measured on the Synergy H1 full-function microplate reader (BioTek) (excitation wavelength: 340 nm, emission wavelength: […], gain value: 75).
The IC50 value of the test compounds was calculated by fitting the percentage inhibition rate and data of ten concentrations to a four-parameter nonlinear logic formula with GraphPad prism.

| IC50 [1] | SMILES | IC50 (hERG potassium channel) |
| --- | --- | --- |
| 1.75 nM | Nc1nc(N2CCC3(CC2)Cc2ccccc2[C@H]3N)c(F)nc1Sc1ccnc(N)c1Cl [Example 179, (S)-1′-(6-amino-5-((2-amino-3-chloropyridin-4-yl)thio)-3-fluoropyrazin-2-yl)-1,3-dihydrospiro[indene-2,4′-piperidin]-1-amine] | 4510 nM |
| 3.07 nM | Nc1nc(N2CCC3(CC2)Cc2ncsc2[C@H]3N)c(F)nc1Sc1ccnc(N)c1Cl [Example 181, (S)-1′-(6-amino-5-((2-amino-3-chloropyridin-4-yl)thio)-3-fluoropyrazin-2-yl)-4,6-dihydrospiro[cyclopenta[d]thiazole-5,4′-piperidin]-6-amine] | 21900 nM |
| 1.73 nM | Cc1nc(N2CCC3(CC2)Cc2ncsc2[C@H]3N)c(CO)nc1Sc1ccnc(N)c1Cl [Example 171, (S)-(6-((2-amino-3-chloropyridin-4-yl)thio)-3-(6-amino-4,6-dihydrospiro[cyclopenta[d]thiazole-5,4′-piperidin]-1′-yl)-5-methylpyrazin-2-yl)methanol] | 18800 nM |

| SMILES | IC50 [1] | IC50 (hERG potassium channel) |
| --- | --- | --- |
| Nc1nccc(Sc2cnc(N3CCC4(CC=C(C5CC5)[C@H]4N)CC3)cn2)c1Cl [Example 144, (S)-8-(5-((2-amino-3-chloropyridin-4-yl)thio)pyrazin-2-yl)-2-cyclopropyl-8-azaspiro[4.5]dec-2-en-1-amine] | 1.48 nM | 2340 nM |
